Measurements reported in patent publication US4570005A, “Process for the preparation of 2-arylpropyl ether or thioether derivatives” (priority 1980, dated 1986).
Values after ≈ are worked out from the molar mass of the structure shown.

What was measured:
[1] = system: tobacco cutworm; test: Test 2: Tobacco Cutworm Larva Dipping Test, mortality after 24 hours; type: in vivo; details: 24 hours
Outline: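 Second- and fifth-instar larvae dipped 5 s in a water dilution of an emulsifiable concentrate at 100 or 20 ppm, blotted, then held on artificial diet at 25° C. Dead and living larvae counted after 24 hours; mortality averaged over three cups.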

[2] = system: green peach aphid; test: Test 5: Effect on Green Peach Aphid; type: in vivo; details: Myzus persicae; 100 ppm; mortality class; 24 hours; read-out: Insecticidal Activity
Outline: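 Eggplant seedlings with 3–4 leaves were infested with aphids and sprayed with a 100 ppm aqueous dilution of an emulsifiable concentrate, then kept in a glasshouse. Living insects were counted after 24 h. Mortality is averaged over three pots and graded A (>95%), B (80–95%), C (50–80%) or D (<50%).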

[3] = system: two-spotted spider mite; test: Test 6: Effect on Two-Spotted Spider mite Adults; type: in vivo; details: Tetranychus urticae; 100 ppm; adults; 24 hours; 25° C; read-out: Mortality (%)
Protocol: To a mixture of 20 parts of the compound of the present invention and 20 parts of Sorpol SM-200 (registered tradename for the product supplied by Toho Chemical Industrial Co., Ltd.) was added 60 parts of xylol, and the mixture was suffciently blended. The obtained emulsifiable concentrate was diluted at a predetermined concentration with distilled water, and the obtained dilution was used.
A kidney bean leaf disc perforated with a cork borer (15 mm in diameter) was placed on water-impregnated absorbent cotton (2 cm×2 cm), and 10 adults of two-spotted spider mite were set free. A chemical dilution having a concentration of 100 ppm was applied with an applicator in an amount of 3 ml.
The leaf disc-placed absorbent cotton was placed in a thermostat chamber maintained at 25° C. After 24 hours, the number of killed adults was counted and the mortality was calculated. The test was made on three leaf discs and the average value was calculated.

[4] = system: diamond back moth; test: Test 4: Effect on Diamond Back Moth; type: in vivo; details: Plutella, third-instar larvae, 24 hours, read-out: Mortality (%)
Outline: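 Compound formulated as an emulsifiable concentrate, diluted in water to 100 or 20 ppm and sprayed at 3 ml per cup onto cabbage leaves holding 10 third-instar larvae. Mortality counted after 24 hours; mean of three cups.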

[5] = Test 9: Toxicity Test (acute oral toxicity, mice); details: mouse, in vivo, po
Protocol: A predetermined amount of a solution or suspension of a test compound in corn oil was orally administered to male mice having a body weight of 19 to 23 g (0.2 ml per 10 g of the body weight). After 7 days, the number of killed mice was counted and the influences on the mice were examined.

[6] = system: German cockroach; test: Test 7: Effect on German Cockroach; type: in vivo; details: Blattella germanica, male adults, agonized and killed after 24 hours, read-out: Mortality (%); for mortality at 10 mg/m2: 10 mg/m^2; for mortality at 50 mg/m2: 50 mg/m^2
Outline: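 Petri dish floors were treated with 50 or 10 mg/m2 of compound (diluted emulsifiable concentrate) and air-dried. Ten male adult German cockroaches per dish were held at 25° C. Agonized and dead insects were counted after 24 hours, averaging two dishes.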

[7] = Test 8: Fish Toxicity; type: in vivo; details: carp, water; concentration at which 1/2 of the test fishes were killed within 48 hours; read-out: Fish Toxicity, TLm48
Protocol: A water tank having a width of 60 cm, a length of 30 cm and a height of 40 cm was filled with water, and 10 yearling carps having a body length of about 5 cm were set free in the tank and adapted to the environment in the tank. A test compound was applied so that the concentration in water was 10, 1 or 0.1 ppm. After 48 hours, the numbers of killed and living carps were counted and the influences on the fishes were examined.

[8] = system: sensitive green rice leafhopper (collected at Chigasaki); test: whole plant or invertebrate; type: in vivo; details: Nephotettix cincticeps, sensitive female adults, 24 hours, read-out: Mortality (%), Green Rice Leafhopper Collected at Chigasaki
Outline: (§1)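 Emulsifiable concentrate diluted to 100 or 20 ppm was sprayed, 3 ml per pot, onto hydroponic rice seedlings at 2–3 leaves. After air-drying, 10 female adults of the Nakagawara (resistant) or Chigasaki (sensitive) strain were released per caged pot. Mortality was counted at 24 h and averaged over three pots.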

[9] = system: resistant green rice leafhopper (collected at Nakagawara); test: Test 3: Effect on Resistant Green Rice Leafhopper (collected at Nakagawara); type: in vivo, Nephotettix cincticeps Uhler (Green rice leafhopper); details: Nephotettix cincticeps, 24 h, read-out: Mortality (%), Green Rice Leafhopper Collected at Nakagawara
Outline: as §1

[10] = system: tobacco cutworm; test: Test 1: Effect on Tobacco Cutworm (leaf immersion), mortality after 24 hours; type: in vivo; details: second-instar larvae, 25° C
Outline: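 Sweet-potato leaves dipped 10 s in emulsifiable concentrate diluted to 100 or 20 ppm, air-dried, then exposed to second-instar larvae at 25 °C. Mortality counted after 24 h, averaged over three cups.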

[11] = fifth-instar larvae, read-out: Motality (%), Fifth-Instar Larvae
[12] = second-instar larvae, read-out: Motality (%), Second-Instar Larvae

Row | SMILES | mortality at 20 ppm [1, 11] | mortality at 20 ppm [1, 12] | mortality at 100 ppm [1, 11] | mortality at 100 ppm [1, 12] | mortality at 100 ppm [2] | mortality at 100 ppm [3] | mortality at 20 ppm [4] | mortality at 100 ppm [4] | LD50 at 168 h [5] | mortality at 10 mg/m2 [6] | mortality at 50 mg/m2 [6] | LC50 at 48 h [7] | mortality at 20 ppm [8] | mortality at 100 ppm [8] | mortality at 20 ppm [9] | mortality at 100 ppm [9] | mortality at 20 ppm [10] | mortality at 100 ppm [10]
1 | CC(C)(COCc1cccc(Oc2ccccc2)c1)c1ccc(Cl)cc1 [Compound 49, 3-Phenoxybenzyl 2-(4-chlorophenyl)-2-methylpropyl ether] | 100% | 100% | 100% | 100% | > 95% | 100% | 100% | 100% | > 500 mg/kg | 100% | 100% | > 10 µg/mL | 100% | 100% | 100% | 100% | 100% | 100%
2 | COc1ccc(C(C)(C)COCc2cccc(Oc3ccccc3)c2)cc1 [Compound 1, 3-Phenoxybenzyl 2-(4-methoxyphenyl)-2-methyl propyl ether] |  |  |  |  | 80 to 95% | 100% |  |  | > 500 mg/kg | 100% | 100% | > 10 µg/mL | 100% | 100% | 100% | 100% |  | 
3 | CCC(C)(COCc1cccc(Oc2ccccc2)c1)c1ccc(Cl)cc1 (stereo not shown) [Compound 50, 3-Phenoxybenzyl 2-(4-chlorophenyl)-2-ethylpropyl ether] | 90% | 100% | 100% | 100% | > 95% | 100% | 100% | 100% | > 500 mg/kg | 100% | 100% | > 10 µg/mL | 80% | 100% | 90% | 100% | 100% | 100%
4 | CC(C)(COCc1cccc(Oc2ccc(F)cc2)c1)c1ccc(Cl)cc1 [Compound 6, 3-(4-Fluorophenoxy)benzyl 2-(4-chlorophenyl)-2-methylpropyl ether] | 100% | 100% | 100% | 100% | > 95% | 100% | 100% | 100% | > 500 mg/kg | 100% | 100% | > 10 µg/mL | 100% | 100% | 100% | 100% | 100% | 100%
5 | CC(C)(CSCc1cccc(Oc2ccccc2)c1)c1ccc(Cl)cc1 [Compound 20, 3-Phenoxybenzyl 2-(4-chlorophenyl)-2-methylpropyl thioether] | 80% | 90% | 100% | 100% | > 95% | 100% | 100% | 100% | > 500 mg/kg |  |  | > 10 µg/mL | 50% | 100% | 80% | 100% | 100% | 100%
6 | CCCCOc1ccc(C(C)(C)COCc2cccc(Oc3ccccc3)c2)cc1 [Compound 69, 3-Phenoxybenzyl 2-[4-(n-butoxy)phenyl]-2-methylpropyl ether] |  |  |  |  | > 95% | 60% |  |  | > 500 mg/kg |  |  | > 1 µg/mL |  |  |  |  |  | 
7 | CC(C)(COCc1cccc(Oc2ccc(F)cc2)c1)c1ccc(OC(F)F)cc1 [Compound 11, 3-(4-Fluorophenoxy)benzyl 2-(4-difluoromethoxyphenyl)-2-methylpropyl ether] | 70% | 90% | 100% | 100% | > 95% | 100% | 90% | 100% | > 500 mg/kg | 100% | 100% | 0.01 to 0.05 µg/mL (≈ 0.024 to 0.12 µM) | 100% | 100% | 100% | 100% | 100% | 100%
8 | CC(C)(C)c1ccc(C(C)(C)COCc2cccc(Oc3ccccc3)c2)cc1 [Compound 105, 3-Phenoxybenzyl 2-(4-tert-butylphenyl)-2-methylpropyl ether] |  |  |  |  | 80 to 95% | 100% |  |  | > 500 mg/kg |  |  | > 1 µg/mL |  |  |  |  |  | 
9 | COc1ccc(Oc2cccc(COCC(C)(C)c3ccc(Cl)c(Cl)c3)c2)cc1 [Compound 41, 3-(4-methoxyphenoxy)benzyl 2-(3,4-dichlorophenyl)-2-methylpropyl ether] |  |  |  |  | > 95% | 100% |  |  | > 500 mg/kg | 100% | 100% | > 10 µg/mL | 100% | 100% | 100% | 100% |  | 
10 | CC(C)(COCc1cccc(Oc2ccccc2)c1)c1ccc(OC(F)F)cc1 [Compound 18, 3-phenoxybenzyl 2-(4-difluoromethoxyphenyl)-2-methylpropyl ether] | 100% | 100% | 100% | 100% | > 95% | 100% | 100% | 100% | > 500 mg/kg | 100% | 100% |  | 100% | 100% | 100% | 100% | 100% | 100%
11 | CC(C)(COCc1cccc(Oc2ccccc2)c1)c1ccc(Cl)c(Cl)c1 [Compound 48, 3-Phenoxybenzyl 2-(3,4-dichlorophenyl)-2-methylpropyl ether] | 60% | 70% | 70% | 90% | > 95% | 100% | 100% | 100% | > 500 mg/kg | 100% | 100% | > 10 µg/mL | 100% | 100% | 100% | 100% | 80% | 100%
